Measured values as given in patent US20240293367A1, “METHODS OF TREATING DISORDERS WITH A […]” (Cybin IRL Limited, priority 2023, published 2024).

System: participants with MDD
Assay: MADRS total score, response, remission and relapse in MDD participants (Phase I/IIa study)
Type: in vivo, human
Description: Cohorts 1, 4, 5, and 6 of the study was comprised of participants with MDD. Cohorts 2, 3, and the relative BA cohort of the study were comprised of normal healthy volunteers (NHV). […] MDD participants had been on a stable dose of antidepressant medication for at least one month prior to screening with an inadequate response to that antidepressant medication as judged by the Investigator, and continued to receive their prescribed antidepressant throughout the course of the study.
Cohorts 4 and 5. For Cohorts 4 and 5, 12 participants each (24 participants total) were randomized in a 3:1 ratio to receive 12 mg of psilocin-d10 or matched placebo in a single dosing session on Day 1. Following a 21-day interval, all participants received a dose of 12 mg psilocin-d10 on Day 22 (second dose for participants originally randomized to psilocin-d10, first dose for participants randomized to placebo), and were followed to Day 42.
Cohort 6. For Cohort 6, 12 participants were randomized in a 3:1 ratio to receive 16 mg of psilocin-d10 or matched placebo in a single dosing session on Day 1. Following a 21-day interval, all participants received a dose of 16 mg psilocin-d10 on Day 22 (second dose for participants originally randomized to psilocin-d10, first dose for participants randomized to placebo), and were followed to Day 42. Given the availability of data and considering that the secondary endpoint was a change in baseline to Day 21 in MADRS, efficacy data presented herein considers the data cut off of Day 21 postdose. One participant had to be withdrawn from the study due to pregnancy.
The primary efficacy endpoint defined in the statistical analysis plan (SAP) is the change from baseline to Day 21 of the total Montgomery-Åsberg Depression Rating Scale (MADRS) score compared to placebo, therefore efficacy data presented herein considers the data cut off of Day 21 postdose. Mean total score and change from baseline on Montgomery-Åsberg Depression Rating Scale (MADRS) on days 1, 10, 17, 22, 31, 38, and 42 are presented as secondary efficacy endpoints.
The secondary objective of the study was to evaluate the efficacy of psilocin-d10 in treating symptoms of MDD as measured by the change from baseline to Day 21 of the MADRS total score in the Intent-to-Treat population, with data analyzed according to the treatment group each participant was randomized to receive. Data from participants in Cohorts 4, 5, and 6 randomized to placebo was pooled for analysis purposes (N=9). Data from participants in Cohorts 4, 5, and 6 randomized to 12 mg or 16 mg psilocin-d10 (N=27) was also pooled for analysis.
Data from the study was also analyzed according to dosage level of psilocin-d10. Data from participants in Cohorts 4, 5, and 6 randomized to placebo was pooled for analysis purposes (N=9). Data from participants in Cohorts 4 and 5 (treated with 12 mg psilocin-d10) was also pooled for analysis (N=18).
The rates of remission, response, and relapse were also evaluated within the study. […] Additionally, 20.8% (5 out of 24) of participants in the psilocin-do group (12 mg and 16 mg combined) were in remission (remitters) (defined as a MADRS score of ≤10) compared to 0% for placebo at Day 21. The same 5 participants who were in remission were also classified as responders. None of the participants relapsed at Day 21 compared to baseline.
The MADRS is a 10-item scale with ratings based on a clinical interview which moves from broadly phrased questions about symptoms to more detailed ones allowing a precise rating of severity. A rating scale from 0 to 6 is employed and the rater must decide whether the rating lies on defined scale steps (0, 2, 4, 6) or between them (1, 3, 5). The MADRS can be used for any time interval between ratings, be it weekly or otherwise, and the time interval should be recorded. […]

[1] = Day 21, 12 mg single dose, Cohorts 4 and 5
[2] = Day 21, 16 mg single dose, Cohort 6
[3] = Day 21, single dose, 12 and 16 mg pooled

## [2H]C([2H])([2H])N(C([2H])([2H])[2H])C([2H])([2H])C([2H])([2H])c1c[nH]c2cccc(O)c12 [psilocin-d10, 3-(2-(bis(methyl-d3)amino)ethyl-1,1,2,2-d4)-1H-indol-4-ol]
10 days post first dose, 12 mg and 16 mg pooled
  mean reduction in baseline MADRS: 55%
10 days post second dose
  reduction in baseline MADRS: 66%
ANOVA [2], Placebo/active group (one dose Day 22)
  MADRS change from baseline, LS Mean (Std Err) for Day 42: −16.48 (3.50)
ANOVA [2], two doses, 12 and 16 mg pooled
  MADRS change from baseline, LS Mean (Std Err) for Day 42: −21.04 (2.24)
ANOVA [3], within Placebo/active group
  MADRS change from baseline, LS Mean (Std Err) for Day 42: −16.54 (2.89)
ANOVA at Day 21, 12 mg
  MADRS change from baseline, LS Mean: −16.70
ANOVA at Day 21, 16 mg
  MADRS change from baseline, LS Mean: −15.61
ANOVA at Day 42 (by dosage level), Placebo/active group (one dose Day 22)
  MADRS change from baseline, LS Mean: −16.48
ANOVA at Day 42, two 12 mg doses
  MADRS change from baseline, LS Mean: −19.83
ANOVA at Day 42, two 16 mg doses
  MADRS change from baseline, LS Mean: −23.41
ANOVA, 12 and 16 mg pooled
  MADRS change from baseline, LS Mean (Std Err) for Day 21: −16.33 (1.30)
Day 10 after single dose (baseline 32.2)
  MADRS mean total score: 17.7
Day 21, 12 mg (3 out of 15)
  participants in remission: 20%
Day 21, 12 mg (8 out of 15)
  participants with response: 53.3%
Day 21, 12 mg and 16 mg combined (5 out of 24)
  participants in remission (MADRS ≤10): 20.8%
Day 21, 12 mg and 16 mg combined (12 out of 24)
  participants with response (≥50% reduction from baseline MADRS): 50%
[1]
  MADRS total score, Change from Baseline, Mean: −17.0
  MADRS total score, Change from Baseline, Median: −17.0
  MADRS total score, Observed, Mean: 15.9
  MADRS total score, Observed, Median: 14.0
Day 21, 16 mg (2 out of 9)
  participants in remission: 22.2%
Day 21, 16 mg (4 out of 9)
  participants with response: 44.4%
[2]
  MADRS total score, Change from Baseline, Mean: −14.9
  MADRS total score, Change from Baseline, Median: −17.0
  MADRS total score, Observed, Mean: 16.6
  MADRS total score, Observed, Median: 18.0
Day 21, Cohort 4, 12 mg
  Relapse - No: 7 (100.0) n (%)
  Relapse - Yes: 0 (0.0) n (%)
  Remission (MADRS ≤10) - Yes: 2 (28.6) n (%)
  Remission - No: 5 (71.4) n (%)
  Response (≥50% reduction from baseline MADRS) - Yes: 4 (57.1) n (%)
  Response - No: 3 (42.9) n (%)
Day 21, Cohort 5, 12 mg
  Relapse - No: 8 (100.0) n (%)
  Relapse - Yes: 0 (0.0) n (%)
  Remission (MADRS ≤10) - Yes: 1 (12.5) n (%)
  Remission - No: 7 (87.5) n (%)
  Response (≥50% reduction from baseline MADRS) - Yes: 4 (50.0) n (%)
  Response - No: 4 (50.0) n (%)
Day 21, Cohort 6, 16 mg
  Relapse - No: 9 (100.0) n (%)
  Relapse - Yes: 0 (0.0) n (%)
  Remission (MADRS ≤10) - Yes: 2 (22.2) n (%)
  Remission - No: 7 (77.8) n (%)
  Response (≥50% reduction from baseline MADRS) - Yes: 4 (44.4) n (%)
  Response - No: 5 (55.6) n (%)
Day 21, Cohorts 4, 5 and 6, pooled 12 mg and 16 mg
  Remission (MADRS ≤10) - Yes: 5 (20.8) n (%)
Day 21, Cohorts 4 and 5, 12 mg
  Relapse - No: 15 (100.0) n (%)
  Relapse - Yes: 0 (0.0) n (%)
  Remission (MADRS ≤10) - Yes: 3 (20.0) n (%)
  Remission - No: 12 (80.0) n (%)
  Response (≥50% reduction from baseline MADRS) - Yes: 8 (53.3) n (%)
  Response - No: 7 (46.7) n (%)
Day 21, pooled 12 mg and 16 mg
  Relapse - No: 24 (100.0) n (%)
  Relapse - Yes: 0 (0.0) n (%)
  Remission - No: 19 (79.2) n (%)
  Response (≥50% reduction from baseline MADRS) - Yes: 12 (50.0) n (%)
  Response - No: 12 (50.0) n (%)
[3]
  MADRS total score, Change from Baseline, Mean: −16.2
  MADRS total score, Change from Baseline, Median: −17.0
  MADRS total score, Observed, Mean: 16.1
  MADRS total score, Observed, Median: 16.5
Day 21, 95% CI (−12.2, 10.1), P 0.8421
  MADRS, Difference in LS Means, 12 mg compared to Cohort 6 (16 mg): −1.09
Day 21, 95% CI (−20.5, −7.7), P 0.0001
  MADRS, Difference in LS Means, 12 mg compared to placebo: −14.11
Day 21, 95% CI (−22.3, −3.7), P 0.0080
  MADRS, Difference in LS Means, 16 mg compared to placebo: −12.99
Day 21 after single dose
  mean decrease from baseline MADRS: 50%
Day 31 (10 days post second dose)
  MADRS mean total score: 6.7
Day 42, Cohort 4, two 12 mg doses
  Relapse - No: 7 (100.0) n (%)
